Laboratory results taken from US6887894B2, “Use of lipoic acid for improving the bioavailability of mineral salts” (BASF Aktiengesellschaft, priority 2000, dated 2005).
Where “and” joins values, the source holds several entries; their conditions need not be identical. Equal values may be shown once. Marks after values point to notes of the source that are not given here.

Columns and labels:
[1] = Study 1/Study 2: bioavailability of Zn lipoate and ZnSO4 in rats (Example 4, Comparison Example 1); format: in vivo; settings: for zinc deficiency symptoms (anorexia, alopecia, depression of growth): diet with 0.4% NaPA, high dose 20 mg Zn/kg of feed, 28 days
Method: Male Albino rats (Wistar) of an initial weight of 40 g were used. The animals were kept during each 28-day experimental period at a room temperature of 22° C., a relative humidity of approximately 55% and in a 12-hour light-dark cycle. The rats were housed individually in Makrolon cages with stainless steel bottoms which permitted controlled feed intake and quantitative collection of feces and urine. The feed was provided once a day at 8^00. The live mass of the rats was determined weekly, feces and urine were collected every day at 10^00 and 17^00. At the end of the experiment, the rats were decapitated after chloroform anesthesia. • 4.2 Description of the diets and experimental design
6 rats are used per experimental group. The mealy diets were administered ad lib. […] The control group (group 1) received the PA-free base diet.
The amounts of feces and urine produced separately in the metabolic cages are collected quantitatively every day and stored at −22° C. To avoid any losses of N in the urine collection vessels, 1 ml of 20% strength HCl (Suprapur) is added to each of the vessels daily. For further analysis, the sample material is freeze-dried for 48 h. • 4.3.2 Organ and tissue samples
The right femur, liver and testes are removed immediately after decapitation and complete exsanguination of the animals and the fresh mass is determined. The samples are sealed in plastic film and stored at −22° C. until further analysis. • 4.3.3 Blood
The rats are decapitated at the end of the experiment after complete narcosis with chloroform and the blood collected in heparinized plastic tubes. 40 I.U. of heparin sodium are introduced per ml of blood. […]
Zinc is determined by means of atomic absorption spectrophotometry (AAS) in an acetylene flame. • 4.5 Diagnosis of zinc status • 4.5.1 Determination of the plasma zinc concentration
The plasma zinc concentration is measured directly in the flame by means of AAS (Philips, PIJ 9400). […]
The enzyme activity is measured kinetically on a semimicroscale at a wavelength of 405 nm and 25° C. using a UV spectrophotometer. […]

[2] = Study 3: Zn intake, fecal excretion and apparent absorption of zinc; format: in vivo; settings: rats
Method: (§1) 36 male Wistar albino rats (Harlan Winkelmann, Borchen) having an initial weight of 47.0±2.63 g were randomly divided into 6 groups each of 6 animals and fed the diets specified in Table 7 (experimental design) and Section 5.2 over a period of 28 days. The animals were kept individually in Makrolon cages on stainless grids under standard conditions (22° C., 55% relative humidity, 12 hour light/dark rhythm). Feed and deionized drinking water were available to the experimental animals ad libitum. During the 2nd and 3rd experimental week (metabolism phase) feces were collected quantitatively. After completion of the experimental phase (day 28), the animals were decapitated under CO2— anesthesia, exsanguinated and the tissue to be analyzed was removed. Groups Ib, IIb and IIIb here are Example 5, while Groups Ia, IIa and IIIa are Comparison Example 2.
During the two-week metabolism phase, the rat feces were collected daily, adherent feed residues and other impurities were removed and the samples were stored at −20° C. At the end of the metabolism period the fecal weight was determined quantitatively and feces were then freeze-dried under vacuum over a period of 48 h (Gamma 1-20, Christ, Osterode). The dried samples were finely around using a domestic grinder (Moulinette electronic 89902) and stored at ambient temperature in PE bottles.
A sample aliquot of 1.5 g or the freeze-dried and ground fecal samples was dried for 24 h at 105° C. to remove residual water and then ashed in a muffle furnace at 450° C. for 21 h. The ash residue was dissolved by acid addition and then analyzed quantitatively. The Zn concentration in the fecal samples was determined by flame-AAS (Philips, PU 9400, Kassel). • 5.3.4 Diagnosis of Zn status
(§2) Zn absorption was calculated, without taking into account endogenous level as a difference between element […] and fecal excretion (=apparent absorption). Plasma Zn concentration was determined by AAS (Philips, PU 9400, Kassel). The samples were diluted with 0.1 M HCl in a ratio of 1:20 (v/v). The activity of the Zn metalloenzyme alkaline phosphatase (AP) (E.C. 3.1.3.1) wan assayed using the individual chemicals diethanolamine buffer and p-nitrophenyl phosphate according to the recommendations of the […] FÜR […] CHIMIE [German Clinical Chemistry Society] ([…] FÜR […] CHEMIE (1972). Standardmethode zur Bestimmung der Aktivität der alkalischen Phosphatase (AP) [Standard Method for Determining Alkaliur Phosphatase (AP) Activity]. Z. klin. Chem u. klin. Biochemie. 10, 191). • 5.3.5 Metallothionin in liver tissue

[3] = Study 3: Zn concentration in the femur; format: in vivo; settings: rats; for Zn concentration in Femur: day 28
Method: as §1
The ash solutions were prepared by the principle of wet ashing. The sample material was admixed with 10 ml of 65% strength HNO3 (Merck, Suprapur) and then boiled under a reflux condenser in a digestion apparatus (Gerhardt SMA-20, Bonn). This oxidatively degraded the organic matrix and completely mineralized the test material. The Zn concentration was determined in the ash solutions by flame-AAS (Philips, PU 9400, Kassel). • 5.3.3 Analysis of the fecal samples

[4] = Study 3: plasma Zn concentration; format: in vivo; settings: rats, day 28
Method: as §1
The samples were diluted with 0.1 M HCl in a ratio of 1:20 (v/v). […] CHIMIE [German Clinical Chemistry Society]

metallothionin = assay: Study 3: metallothionin in liver tissue; format: in vivo; settings: rats; for Metallothionin concentration in liver tissue: day 28
Method: as §1
Total MT concentration in liver tissue was determined using the cadmium-binding method of EATON and TOAL (EATON, D. L., TOAL, B. F. (1982): Evaluation of the cadmium/hemoglobin affinity assay for the rapid determination of metallothionein in biological tissues. Toxicol Appl. Pharmacol. 66, 134-142) in a modification tested at the Giessen Institute (LEUNERT, V. (1994): Einfluβ von Zink sowie fetalem Kälberserum, bovinem Serumalbumin und calciummobilisierenden Rezeptoragonlsten auf Metallothionein in primär kultivierten Rattenhepatocyten [Effect of zinc and fecal calf serum, vine serum albumin and calcium-immobilizing receptor agonists on metallothionin in primary cultivations of rat hepatocytes]. Inaugural dissertation at the Institut für Tierernahrung und Ernährungse-physiologie [Institute of Animal Nutrition and Nutritional Physiology] of the University of Cicesen, Verlag Shaker, Aachen, PALLAUF et al. 1995). The protein content in liver homogenates war determined using the Lowry-Folin method (DAWSON, R. M. C. ELLIOTT, D C; JONES, K. M. (1986): Data for biochemical research, 3rd ed., Clarendon Press, New York, 543). • 5.3.5. Statistical analysis

[5] = Study 3: zootechnical parameters (feed intake, live weight) of growing rats; format: in vivo; settings: for LW Gain: 28 days; for Live weight d0: initial weight
Method: as §1
Parameters used to estimate Zn availability were the zootechnical parameters feed intake, live weight development and live weight increase, apparent Zn absorption, alkaline phosphatase activity in plasma, plasma and femur Zn concentration and metallothionin concentration in liver tissue. • 5.2 Experimental diets
The experimental animals were fed semisynthetic diets based on high-purity components (corn starch, egg albumin protein, sucrose, soybean oil and cellulose) over a period of 28 days (see Table 8 for composition of the base diet), the experimental diets differing with respect to the type of zinc compound supplemented, the absolute Zn concentration and the phytic acid content (0.4% PA from NaPA, Sigma-Aldrich, Steinheim) (see Table 7).
Zn supplements used were Zn ((R)-α-Lipoat)2(H2O)2 from Example 1 (Example 5) and Zn sulfate (ZnSO4.7 H2O analytical grade, Merck, Darmstadt) (Comparison Example 2). The Zn concentrations of the experimental diets Ia-IIb were set at a level of 10 mg/kg of diet estimated to be marginal for growing rats, in order to enable investigation of the availability of the Zn supplements under test in the suboptimun supply range.

[6] = test system: alkaline phosphatase (AP) (E.C. 3.1.3.1); assay: Study 3: alkaline phosphatase activity in plasma; format: in vivo; settings: rats, day 28
Method: as §1, §2

[7] = in vivo; cited from earlier work
[8] = 10 ppm Zn, PA-free diet (group I)
[9] = 20 ppm Zn + 0.4% PA (group III)

## O.O.O.O.O.O.O.O=S(=O)([O-])[O-].[Zn+2] [Zn sulfate, ZnSO4.7 H2O]
[1]
  zinc deficiency symptoms (anorexia, alopecia, depression of growth): still present
[2]; 10 ppm Zn + 0.4% PA (group II)
  Apparent absorption of Zn: 43.0 ^a %
  Apparent absorption of Zn (absolute): 0.351 ^a mg/14 d
  Fecal excretion of Zn: 0.484 ^a mg/14 d
[2]; [8]
  Apparent absorption of Zn: 76.4 ^b %
  Apparent absorption of Zn (absolute): 1.35 ^bc mg/14 d
  Fecal excretion of Zn: 0.411 ^a mg/14 d
[2]; [9]
  Apparent absorption of Zn: 43.9 ^a %
  Apparent absorption of Zn (absolute): 1.13 ^b mg/14 d
  Fecal excretion of Zn: 1.43 ^b mg/14 d
[3]; 10 ppm Zn + 0.4% PA (group II)
  Zn concentration in Femur: 36.3 ^a μg/g FW
[3]; [8]
  Zn concentration in Femur: 81.4 ^c μg/g FW
[3]; [9]
  Zn concentration in Femur: 55.4 ^b μg/g FW
[4]; 10 ppm Zn + 0.4% PA (group II)
  Zn concentration in Plasma: 0.57 ^a μg/ml
[4]; [8]
  Zn concentration in Plasma: 1.11 ^bc μg/ml
[4]; [9]
  Zn concentration in Plasma: 0.80 ^ac μg/ml
metallothionin; 10 ppm Zn + 0.4% PA (group II)
  Metallothionin concentration in liver tissue: 6.36 ng MT/mg Protein
metallothionin; [8]
  Metallothionin concentration in liver tissue: 8.08 ng MT/mg Protein
metallothionin; [9]
  Metallothionin concentration in liver tissue: 7.58 ng MT/mg Protein
[5]; 10 ppm Zn + 0.4% PA (group II)
  Feed intake Total: 166 ^a g/28d
  Feed intake d1-d7: 37.4 ^a g
  Feed intake d8-d14: 42.3 ^a g
  Feed intake d15-d21: 40.5 ^a g
  Feed intake d22-d28: 45.3 ^a g
  Live weight d7: 62.0^a g
  Live weight d14: 84.6^a g
  Live weight d21: 94.2^a g
  Live weight d28: 106.5^a g
  LW Gain: 60.7^a g
  Live weight d0: 45.8 g
[5]; [8]
  Feed intake Total: 272 ^b g/28d
  Feed intake d1-d7: 40.4 ^ab g
  Feed intake d8-d14: 67.8 ^bc g
  Feed intake d15-d21: 77.5 ^bc g
  Feed intake d22-d28: 86.6 ^b g
  Live weight d7: 58.1^ab g
  Live weight d14: 104.2^ab g
  Live weight d21: 141.3^bc g
  Live weight d28: 175.8^bc g
  LW Gain: 128.5^bc g
  Live weight d0: 47.3 x g
[5]; [9]
  Feed intake Total: 253 ^b g/28d
  Feed intake d1-d7: 49.6 ^ab g
  Feed intake d8-d14: 61.0 ^b g
  Feed intake d15-d21: 67.9 ^b g
  Feed intake d22-d28: 74.8 ^b g
  Live weight d7: 68.4^ab g
  Live weight d14: 102.4^ab g
  Live weight d21: 132.3^b g
  Live weight d28: 161.9^b g
  LW Gain: 114.7^b g
  Live weight d0: 47.2 g
[6]; 10 ppm Zn + 0.4% PA (group II)
  Alkaline Phosphatase activity in plasma: 216 ^a mU/ml Plasma
[6]; [8]
  Alkaline Phosphatase activity in plasma: 383 ^b mU/ml Plasma
[6]; [9]
  Alkaline Phosphatase activity in plasma: 347 ^b mU/ml Plasma

## O=C(O)CCCC[C@@H]1CCSS1 [Zn lipoate, Zn((R)-α-lipoate)2(H2O)2]
[1]
  zinc deficiency symptoms (anorexia, alopecia, depression of growth): disappear completely
[1]; in comparison with Zn sulfate
  Zn status parameters of blood plasma (Zn concentration, free zinc binding capacity, alkaline phosphatase activity) and femur and liver Zn concentration: improved
[2]; 20 mg Zn/kg of diet + 0.4% PA (groups IIIa, IIIb)
  absolute Zn absorption, Zn lipoate group versus Zn sulfate group: statistically significant higher
[2]; 10 ppm Zn + 0.4% PA (group II)
  Apparent absorption of Zn: 47.3 ^a %
  Apparent absorption of Zn (absolute): 0.446 ^a mg/14 d
  Fecal excretion of Zn: 0.494 ^a mg/14 d
[2]; [8]
  Apparent absorption of Zn: 73.6 ^b %
  Apparent absorption of Zn (absolute): 1.24 ^b mg/14 d
  Fecal excretion of Zn: 0.445 ^a mg/14 d
[2]; [9]
  Apparent absorption of Zn: 48.4 ^a %
  Apparent absorption of Zn (absolute): 1.60 mg/14 d and 1.60 ^c mg/14 d
  Fecal excretion of Zn: 1.71 ^b mg/14 d
[2]; PA diets, group IIa to IIb and IIIa to IIIb
  apparent Zn absorption (%), effect of Zn lipoate supplementation: increase
[3]; 10 ppm Zn + 0.4% PA (group II)
  Zn concentration in Femur: 41.2 ^a μg/g FW
[3]; [8]
  Zn concentration in Femur: 79.2 ^c μg/g FW
[3]; [9]
  Zn concentration in Femur: 64.1 ^b μg/g FW
[3]; with addition of phytate
  level of Zn incorporation into the femur tissue, compared with Zn sulfate: beneficial effect
metallothionin; 10 ppm Zn + 0.4% PA (group II)
  Metallothionin concentration in liver tissue: 7.94 ng MT/mg Protein
metallothionin; [8]
  Metallothionin concentration in liver tissue: 8.32 ng MT/mg Protein
metallothionin; [9]
  Metallothionin concentration in liver tissue: 8.71 ng MT/mg Protein
metallothionin; all groups (I, II and III)
  hepatic MT concentration, Zn lipoate versus ZnSO4 as Zn source: nominal increases
[5]; 10 ppm Zn + 0.4% PA (group II)
  Feed intake Total: 186 ^a g/28d
  Feed intake d1-d7: 39.5 ^ab g
  Feed intake d8-d14: 46.5 ^a g
  Feed intake d15-d21: 48.2 ^a g
  Feed intake d22-d28: 51.3 ^a g
  Live weight d7: 60.0^ab g
  Live weight d14: 82.5^a g
  Live weight d21: 99.1^a g
  Live weight d28: 114.2^a g
  LW Gain: 67.0^a g
  Live weight d0: 47.2 g
[5]; [8]
  Feed intake Total: 307 ^b g/28d
  Feed intake d1-d7: 54.9 ^ab g
  Feed intake d8-d14: 78.7 ^c g
  Feed intake d15-d21: 86.9 ^c g
  Feed intake d22-d28: 86.5 ^b g
  Live weight d7: 75.6^ab g
  Live weight d14: 122.5^b g
  Live weight d21: 159.2^c g
  Live weight d28: 185.8^c g
  LW Gain: 138.7^c g
  Live weight d0: 47.1 g
[5]; [9]
  Feed intake Total: 300 ^b g/28d
  Feed intake d1-d7: 60.0 ^b g
  Feed intake d8-d14: 77.3 ^c g
  Feed intake d15-d21: 79.2 ^bc g
  Feed intake d22-d28: 83.5 ^b g
  Live weight d7: 77.9^b g
  Live weight d14: 119.1^b g
  Live weight d21: 147.4^bc g
  Live weight d28: 173.2^bc g
  LW Gain: 125.9^bc g
  Live weight d0: 47.3 g
[5]; 28-day period, versus Zn sulfate groups
  total feed intake, change owing to Zn-α-lipoate feeding: increase
[5]; in each case (groups I, II, III)
  live weight gain, Zn lipoate compared with Zn sulfate: increase
[6]; 10 ppm Zn + 0.4% PA (group II)
  Alkaline Phosphatase activity in plasma: 225 ^a mU/ml Plasma
[6]; [8]
  Alkaline Phosphatase activity in plasma: 365 ^b mU/ml Plasma
[6]; [9]
  Alkaline Phosphatase activity in plasma: 384 ^b mU/ml Plasma

## O=C(O)c1ccccn1 [picolinic acid]
[7]
  effects on Zn bioavailability (results of previous studies): not uniform
